Results from patent US7524840B2, “7,8-disubstituted pyrazolobenzodiazepines” (Hoffmann-La Roche Inc., priority 2004, dated 2009).
pIC50: −log10 of the molar value.

Experiments:
[1] = tested on: HCT-116; assay: HCT-116 (colon) cell-based MTT proliferation assay; settings: Homo sapiens, HCT-116, 96 h, 4 days post addition of test compound, read-out: Antiproliferative Activity HCT 116 (colon) Assay IC50
Procedure: The estrogen receptor negative epithelial breast carcinoma line (MDA-MB-435) was purchased from American Type Cell Culture Collection (ATCC; Rockville, Md.) and was grown in the medium recommended by ATCC. For analysis of the effect of the test compounds on growth of these cells, the cells were plated at 2000 cells per well in a 96-well tissue culture plate, and were incubated overnight at 37° C. with 5% CO2. The next day, the test compounds were dissolved in 100% dimethyl sulfoxide (DMSO) to yield a 10 mM stock solution. Each compound was diluted with sterile medium to 1 mM in a sufficient quantity to yield a final concentration of 120 μM. The compounds were then serially diluted in medium with 1.2% DMSO. One-fourth final volume of the diluted compounds was transferred to 96 well plates. Test compounds were assayed in duplicate. DMSO was added to a row of “control cells” such that the final concentration of DMSO in each well was 0.3%. Wells to which no cells were added served as the “blank.” Wells to which no inhibitor was added served as “no inhibitor control”. The plates were returned to the incubator, and 5 days post addition of test compound, were analyzed as described below.
3-(4,5-Dimethylthiazole-2-yl)-2,5-diphenyl-2H-tetrazolium bromide (thiazolyl blue; MTT) was added to each well to yield a final concentration of 1 mg/mL. The plates were then incubated at 37° C. for 3 hours. The plates were centrifuged at 1000 rpm for 5 minutes prior to aspiration of the MTT-containing medium. The MTT-containing medium was then removed and 100 μL 100% ethanol was added to each well to dissolve the resulting formazan metabolite. To ensure complete dissolution, plates were shaken for 15 minutes at room temperature. Absorbencies were read in a microtiter plate reader (Molecular Dynamics) at a wavelength of 570 nm with a 650 nm reference. Percent inhibition was calculated by subtracting the absorbance of the blank (no cell) wells from all wells, then subtracting the division of the average absorbance of each test duplicate by the average of the controls from 1.00. Inhibitory concentrations (IC50) were determined from the linear regression of a plot of the logarithm of the concentration versus the percent inhibition.
The colon adenocarcinoma line SW480 and the colon carcinoma line HCT-116 also were obtained from the ATCC and were tested according to the same protocol provided above for MDA-MB-435 cell based assay with the following modifications. Cell line SW480 was plated at 1000 cells per well and analyzed at 6 days post addition of the test compound. Cell line HCT-116 was plated at 1000 cells per well and analyzed at 4 days post addition of test compound.

[2] = target: T1, KDR (Homo sapiens, UniProt P35968); assay: KDR kinase HTRF assay; type: biochemical
T1 construct: EEE tag
Procedure: To determine inhibition of KDR and FGFR, kinase assays were conducted using an HTRF (Homogeneous Time Resolved Fluorescence) assay. This assay is described in A. J. Kolb et. al., Drug Discovery Today, 1998, 3(7), p 333.
Prior to kinase reaction, recombinant EEE-tagged KDR was activated in the presence of activation buffer (50 mM HEPES, pH 7.4, 1 mM DTT, 10% glycerol, 150 mM NaCl, 0.1 mM EDTA, 26 mM MgCl2, and 4 mM ATP). The enzyme was incubated at 4° C. for 1 hour.
Kinase activity assays were performed in 96-well polypropylene plates (Falcon) with a total volume of 90 μL in each well. Each well contained 1 μM KDR substrate (Biotin-[…]), 1 nM activated KDR, and a test compound with one of 8 assay concentrations ranging from […] to […] (1:5 serial dilution). […] The reaction was incubated at 37° C. for 30 minutes. To stop the KDR reaction, 72 μL of reaction mixture was transferred into a STOP plate containing 18 μL of revelation buffer (20 mM EDTA, 50 mM HEPES, pH 7.4, 0.02% BSA, 10 nM Eu-labelled anti-pY antibody (final conc. 2 nM), and 100 nM streptavidin (final conc. 20 nM)). After mixing, 35 μL of solution was transferred into duplicate wells of a 384-well black plate (Costar), and read at 615/665 nm on a Wallac Victor 5 reader.
Compound IC50 values were determined from duplicate sets of data, and calculated by using Excel and fitting data to equation Y=[(a−b)/{1+(X/c)^d]+b, where a and b are enzyme activity in the presence of no test inhibitor compound and an infinite amount of inhibitor test compound, respectively, c is the IC50 and d is the hill constant of the compound response. The IC50 value is the concentration of test compound that reduces by 50% the enzyme activity under the test conditions described.

T1 sequence (P35968 20-1356, species assumed): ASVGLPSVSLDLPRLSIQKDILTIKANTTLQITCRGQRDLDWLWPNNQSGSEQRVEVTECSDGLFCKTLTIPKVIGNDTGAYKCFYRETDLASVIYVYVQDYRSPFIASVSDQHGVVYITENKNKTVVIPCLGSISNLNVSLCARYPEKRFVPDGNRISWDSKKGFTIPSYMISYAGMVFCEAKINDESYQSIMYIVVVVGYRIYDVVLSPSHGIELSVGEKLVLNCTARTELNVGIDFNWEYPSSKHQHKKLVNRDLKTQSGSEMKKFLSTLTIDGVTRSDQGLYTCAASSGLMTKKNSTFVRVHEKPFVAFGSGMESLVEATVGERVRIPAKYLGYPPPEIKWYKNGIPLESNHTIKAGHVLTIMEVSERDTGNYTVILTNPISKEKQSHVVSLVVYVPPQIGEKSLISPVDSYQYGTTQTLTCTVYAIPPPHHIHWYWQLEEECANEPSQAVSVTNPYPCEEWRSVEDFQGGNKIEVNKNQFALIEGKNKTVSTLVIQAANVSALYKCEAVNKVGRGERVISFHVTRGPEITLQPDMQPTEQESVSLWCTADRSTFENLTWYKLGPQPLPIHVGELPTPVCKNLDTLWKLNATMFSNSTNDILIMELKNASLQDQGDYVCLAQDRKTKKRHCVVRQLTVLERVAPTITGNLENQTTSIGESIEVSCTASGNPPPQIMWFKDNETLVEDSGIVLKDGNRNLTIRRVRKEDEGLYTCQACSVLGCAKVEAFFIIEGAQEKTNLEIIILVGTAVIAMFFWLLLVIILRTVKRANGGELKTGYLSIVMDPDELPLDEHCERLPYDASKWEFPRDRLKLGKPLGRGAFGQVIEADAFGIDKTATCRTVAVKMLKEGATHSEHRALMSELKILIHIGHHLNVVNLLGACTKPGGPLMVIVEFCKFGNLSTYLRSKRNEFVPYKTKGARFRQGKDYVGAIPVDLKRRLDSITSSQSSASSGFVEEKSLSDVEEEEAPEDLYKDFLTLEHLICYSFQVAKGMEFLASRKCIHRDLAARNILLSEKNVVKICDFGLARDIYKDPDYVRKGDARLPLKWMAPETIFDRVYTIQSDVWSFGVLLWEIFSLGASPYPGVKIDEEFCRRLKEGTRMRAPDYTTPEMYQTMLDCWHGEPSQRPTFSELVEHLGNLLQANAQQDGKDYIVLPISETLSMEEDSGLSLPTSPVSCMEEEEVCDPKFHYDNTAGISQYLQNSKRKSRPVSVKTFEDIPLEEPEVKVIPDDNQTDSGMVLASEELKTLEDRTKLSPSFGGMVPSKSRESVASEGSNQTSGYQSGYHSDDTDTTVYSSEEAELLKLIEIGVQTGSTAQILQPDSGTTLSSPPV

## COc1cc2c(cc1F)C(c1ccccc1Cl)=Nc1c(n[nH]c1C)N2 [IVa, 5-(2-chlorophenyl)-1,2-dihydro-7-fluoro-8-methoxy-3-methyl-pyrazolo[3,4-b][1,4]benzodiazepine]
[1]
  pIC50: 5.98
[2]
  pIC50: 8.00
